According to the supplement of paper PMC10307832:

What was measured:
Test in all cases: relative viability (nuclei count vs DMSO), 5 days (fraction); higher = more cells survive
AT9283 + Alpelisib = compound: O=C(Nc1c[nH]nc1-c1nc2ccc(CN3CCOCC3)cc2[nH]1)NC1CC1 [AT9283] + Cc1nc(NC(=O)N2CCC[C@H]2C(N)=O)sc1-c1ccnc(C(C)(C)C(F)(F)F)c1 [Alpelisib] (partner 2 µM)
Method in brief: (§1)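 Relative viability equals treated-well nuclei counts divided by vehicle-well nuclei counts. Counts came from 4× images of lung cancer cell lines grown in 1536-well plates for 5 days after pin-tool dosing on the day after seeding. Dosing used one drug alone or a fixed anchor-drug dose plus five library-drug doses (not always all listed) in √10 steps, and values are medians of duplicate plates.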

Erlotinib + Palbociclib = compound: C#Cc1cccc(Nc2ncnc3cc(OCCOC)c(OCCOC)cc23)c1 [Erlotinib] + CC(=O)c1c(C)c2cnc(Nc3ccc(N4CCNCC4)cn3)nc2n(C2CCCC2)c1=O [Palbociclib] (partner 0.5 µM)
Method in brief: as §1

AT9283 + Palbociclib = compound: O=C(Nc1c[nH]nc1-c1nc2ccc(CN3CCOCC3)cc2[nH]1)NC1CC1 [AT9283] + CC(=O)c1c(C)c2cnc(Nc3ccc(N4CCNCC4)cn3)nc2n(C2CCCC2)c1=O [Palbociclib] (partner 0.5 µM)
Method in brief: as §1

Erlotinib + AZD7762 = compound: C#Cc1cccc(Nc2ncnc3cc(OCCOC)c(OCCOC)cc23)c1 [Erlotinib] + NC(=O)Nc1cc(-c2cccc(F)c2)sc1C(=O)N[C@H]1CCCNC1 [AZD7762] (partner 0.2 µM)
Method in brief: as §1

Erlotinib + Alpelisib = compound: C#Cc1cccc(Nc2ncnc3cc(OCCOC)c(OCCOC)cc23)c1 [Erlotinib] + Cc1nc(NC(=O)N2CCC[C@H]2C(N)=O)sc1-c1ccnc(C(C)(C)C(F)(F)F)c1 [Alpelisib] (partner 2 µM)
Method in brief: as §1

Cell Line | relative viability (AT9283 + Alpelisib; first compound 0.003 µM) | relative viability (AT9283 + Alpelisib; first compound 0.03 µM) | relative viability (AT9283 + Alpelisib; first compound 0.09487 µM) | relative viability (AT9283 + Alpelisib; first compound 0.3 µM) | relative viability (Erlotinib + Palbociclib; first compound 0.02 µM) | relative viability (Erlotinib + Palbociclib; first compound 0.2 µM) | relative viability (Erlotinib + Palbociclib; first compound 0.6325 µM) | relative viability (Erlotinib + Palbociclib; first compound 2 µM) | relative viability (AT9283 + Palbociclib; first compound 0.003 µM) | relative viability (AT9283 + Palbociclib; first compound 0.03 µM) | relative viability (AT9283 + Palbociclib; first compound 0.09487 µM) | relative viability (AT9283 + Palbociclib; first compound 0.3 µM) | relative viability (Erlotinib + AZD7762; first compound 0.02 µM) | relative viability (Erlotinib + AZD7762; first compound 0.2 µM) | relative viability (Erlotinib + AZD7762; first compound 0.6325 µM) | relative viability (Erlotinib + AZD7762; first compound 2 µM) | relative viability (Erlotinib + Alpelisib; first compound 0.02 µM) | relative viability (Erlotinib + Alpelisib; first compound 0.2 µM) | relative viability (Erlotinib + Alpelisib; first compound 0.6325 µM) | relative viability (Erlotinib + Alpelisib; first compound 2 µM)
H3255 | 0.652 | 0.68 | 0.443 | 0.178 | 0.31 | 0.325 | 0.275 | 0.251 | 0.337 | 0.316 | 0.323 | 0.284 | 0.794 | 0.619 | 0.516 | 0.238 | 0.674 | 0.34 | 0.16 | 0.13
NCI-H2126 | 0.722 | 0.788 | 0.501 | 0.323 | 0.381 | 0.364 | 0.349 | 0.367 | 0.341 | 0.35 | 0.365 | 0.272 | 1.03 | 1.01 | 0.892 | 0.688 | 0.781 | 0.644 | 0.537 | 0.379
NCI-H1703 | 0.361 | 0.214 | 0.174 | 0.223 | – | – | – | – | – | – | – | – | 0.113 | 0.133 | 0.142 | 0.115 | 0.367 | 0.321 | 0.352 | 0.296
NCI-H838 | 1.06 | 0.367 | 0.262 | 0.269 | 0.225 | 0.205 | 0.225 | 0.211 | 0.257 | 0.227 | 0.154 | 0.138 | 0.895 | 0.784 | 0.987 | 0.896 | 1 | 0.962 | 1.09 | 0.855
NCI-H1792 | 0.633 | 0.82 | 0.565 | 0.242 | 0.612 | 0.541 | 0.639 | – | 0.607 | 0.661 | 0.623 | 0.399 | 0.904 | 0.465 | 0.6 | 0.469 | – | 0.595 | 0.77 | 0.49
NCI-H1651 | 1.01 | 0.921 | 0.689 | 0.399 | 0.527 | 0.474 | 0.514 | 0.478 | 0.476 | 0.502 | 0.534 | 0.237 | 0.365 | 0.428 | 0.406 | 0.304 | 1.02 | 0.873 | 1.05 | 0.944
HARA | 0.643 | 0.844 | 0.0814 | 0.0973 | 0.233 | 0.224 | 0.241 | 0.188 | 0.265 | 0.23 | 0.135 | 0.141 | 0.385 | 0.383 | 0.333 | 0.259 | 0.946 | 0.619 | 0.646 | 0.256
NCI-H1944 | 0.792 | 0.621 | 0.255 | 0.275 | 0.331 | 0.242 | 0.264 | 0.231 | 0.336 | 0.241 | 0.188 | 0.172 | 0.541 | 0.419 | 0.538 | 0.387 | 0.708 | 0.562 | 0.595 | 0.504
NCI-H650 | 1 | 0.951 | 0.252 | 0.162 | 0.317 | 0.341 | 0.335 | 0.35 | 0.314 | 0.334 | 0.209 | 0.122 | 0.953 | 1.19 | 1.23 | 1.28 | 1.22 | 1.25 | 1.11 | 1.06
PC-14 | 0.992 | 0.893 | 0.554 | 0.1 | 0.173 | 0.0873 | 0.0953 | 0.0635 | 0.526 | 0.273 | 0.105 | 0.0809 | 0.206 | 0.178 | 0.12 | 0.13 | 0.562 | 0.133 | 0.171 | 0.112
NCI-H2170 | 0.806 | 0.638 | 0.205 | 0.217 | 0.374 | 0.36 | 0.379 | 0.282 | 0.446 | 0.37 | 0.198 | 0.148 | 0.862 | 0.737 | 0.54 | 0.35 | 0.895 | 0.745 | 0.578 | 0.308
CAL-12T | 1.27 | 0.956 | 0.362 | 0.296 | 0.433 | 0.125 | 0.154 | 0.146 | 0.543 | 0.257 | 0.165 | 0.217 | 0.63 | 0.688 | 0.529 | 0.544 | 1.16 | 0.859 | 0.56 | 0.371
A-427 | 1.04 | 1.01 | 0.209 | 0.176 | 0.485 | 0.492 | 0.529 | 0.53 | 0.523 | 0.39 | 0.299 | 0.3 | 0.735 | 0.763 | 0.843 | 0.767 | 1 | 1.04 | 1.12 | 1.05
PC-3 [JPC-3] | 1.02 | 0.997 | 0.621 | 0.527 | 0.536 | 0.473 | 0.339 | 0.376 | 0.602 | 0.533 | 0.575 | 0.484 | 0.639 | 0.522 | 0.415 | 0.356 | 0.799 | 0.368 | 0.352 | 0.323
201T | 1.02 | 1.08 | 0.525 | 0.445 | 0.35 | 0.323 | 0.319 | 0.287 | 0.352 | 0.362 | 0.265 | 0.279 | 0.596 | 0.57 | 0.619 | 0.546 | 0.999 | 0.968 | 0.966 | –
LOU-NH91 | 0.695 | 0.684 | 0.531 | 0.427 | 0.564 | 0.546 | 0.624 | 0.542 | 0.552 | 0.515 | 0.418 | 0.439 | 0.682 | 0.692 | 0.769 | 0.684 | 0.539 | 0.495 | 0.527 | 0.512
